# Experimental data taken from PubChem BioAssay (NCI).
#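 Cultured in 96-well plates, cells were exposed to test compound for 48 hours across five concentrations. At the GI50, growth is halved. Definition used: TGI = concentration required for complete inhibition of growth.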
# Tests used:
# Test in all cases: NCI tumour cell line growth inhibition, 48 h
# HCC-2998 colon = system: HCC-2998 colon
# TK-10 renal = system: TK-10 renal
# UACC-257 melanoma = system: UACC-257 melanoma
# T-47D breast = system: T-47D breast
# A498 renal = system: A498 renal
# M14 melanoma = system: M14 melanoma
# UO-31 renal = system: UO-31 renal
# IGROV1 ovarian = system: IGROV1 ovarian
# MALME-3M melanoma = system: MALME-3M melanoma
# PC-3 prostate = system: PC-3 prostate
# HCT-116 colon = system: HCT-116 colon
# UACC-62 melanoma = system: UACC-62 melanoma
# A549 NSCLC = system: A549 NSCLC
# U251 CNS = system: U251 CNS
# SK-MEL-5 melanoma = system: SK-MEL-5 melanoma
# MOLT-4 leukemia = system: MOLT-4 leukemia
# RPMI-8226 leukemia = system: RPMI-8226 leukemia
# DU-145 prostate = system: DU-145 prostate
# SK-MEL-2 melanoma = system: SK-MEL-2 melanoma
# OVCAR-5 ovarian = system: OVCAR-5 ovarian
# SF-539 CNS = system: SF-539 CNS
# SNB-19 CNS = system: SNB-19 CNS
# CCRF-CEM leukemia = system: CCRF-CEM leukemia
# COLO 205 colon = system: COLO 205 colon
# SF-295 CNS = system: SF-295 CNS
# OVCAR-3 ovarian = system: OVCAR-3 ovarian
# SNB-75 CNS = system: SNB-75 CNS
# SR leukemia = system: SR leukemia
# RXF 393 renal = system: RXF 393 renal
# NCI-H522 lung = system: NCI-H522 lung
# 786-0 renal = system: 786-0 renal
# HS 578T breast = system: HS 578T breast
# NCI-H226 lung = system: NCI-H226 lung
# OVCAR-4 ovarian = system: OVCAR-4 ovarian
# SW-620 colon = system: SW-620 colon
# ACHN renal = system: ACHN renal
# SN12C renal = system: SN12C renal
# NCI/ADR-RES ovarian = system: NCI/ADR-RES ovarian
# KM12 colon = system: KM12 colon
# HL-60(TB) leukemia = system: HL-60(TB) leukemia
# BT-549 breast = system: BT-549 breast
# OVCAR-8 ovarian = system: OVCAR-8 ovarian
# SK-MEL-28 melanoma = system: SK-MEL-28 melanoma
# HCT-15 colon = system: HCT-15 colon
# NCI-H23 lung = system: NCI-H23 lung
# K-562 leukemia = system: K-562 leukemia
# MDA-MB-231 breast = system: MDA-MB-231 breast
# HT29 colon = system: HT29 colon
# NCI-H460 lung = system: NCI-H460 lung
# MCF7 breast = system: MCF7 breast
# LOX IMVI melanoma = system: LOX IMVI melanoma
# CAKI-1 renal = system: CAKI-1 renal
# HOP-62 NSCLC = system: HOP-62 NSCLC
# SK-OV-3 ovarian = system: SK-OV-3 ovarian
# SF-268 CNS = system: SF-268 CNS
# MDA-MB-435 = system: MDA-MB-435
compound,measurement,setting,value
CCCn1cc(C2=C(c3cn(C)c4ccccc34)C(=O)NC2=O)c2ccccc21,GI50,HCC-2998 colon,4850 nM
same,TGI,HCC-2998 colon,> 25000 nM
same,GI50,TK-10 renal,3450 nM
same,TGI,TK-10 renal,22000 nM
same,GI50,UACC-257 melanoma,1800 nM
same,TGI,UACC-257 melanoma,> 25000 nM
same,GI50,T-47D breast,897 nM
same,TGI,T-47D breast,7620 nM
same,GI50,A498 renal,837 nM
same,TGI,A498 renal,4770 nM
same,GI50,M14 melanoma,1830 nM
same,TGI,M14 melanoma,> 18200 nM
same,GI50,UO-31 renal,1420 nM
same,TGI,UO-31 renal,12000 nM
same,GI50,IGROV1 ovarian,4030 nM
same,TGI,IGROV1 ovarian,> 17000 nM
same,GI50,MALME-3M melanoma,3440 nM
same,TGI,MALME-3M melanoma,9370 nM
same,GI50,PC-3 prostate,1030 nM
same,TGI,PC-3 prostate,> 25000 nM
same,GI50,HCT-116 colon,1240 nM
same,TGI,HCT-116 colon,8520 nM
same,GI50,UACC-62 melanoma,1630 nM
same,TGI,UACC-62 melanoma,5940 nM
same,GI50,A549 NSCLC,1860 nM
same,TGI,A549 NSCLC,> 25000 nM
same,GI50,U251 CNS,1170 nM
same,TGI,U251 CNS,5330 nM
same,GI50,SK-MEL-5 melanoma,554 nM
same,TGI,SK-MEL-5 melanoma,4360 nM
same,GI50,MOLT-4 leukemia,2450 nM
same,TGI,MOLT-4 leukemia,> 17800 nM
same,GI50,RPMI-8226 leukemia,1950 nM
same,TGI,RPMI-8226 leukemia,11600 nM
same,GI50,DU-145 prostate,1340 nM
same,TGI,DU-145 prostate,> 22400 nM
same,GI50,SK-MEL-2 melanoma,702 nM
same,TGI,SK-MEL-2 melanoma,3240 nM
same,GI50,OVCAR-5 ovarian,6760 nM
same,TGI,OVCAR-5 ovarian,> 25000 nM
same,GI50,SF-539 CNS,689 nM
same,TGI,SF-539 CNS,2800 nM
same,GI50,SNB-19 CNS,5580 nM
same,TGI,SNB-19 CNS,> 25000 nM
same,GI50,CCRF-CEM leukemia,790 nM
same,TGI,CCRF-CEM leukemia,> 11200 nM
same,GI50,COLO 205 colon,889 nM
same,TGI,COLO 205 colon,> 7080 nM
same,GI50,SF-295 CNS,715 nM
same,TGI,SF-295 CNS,3150 nM
same,GI50,OVCAR-3 ovarian,596 nM
same,TGI,OVCAR-3 ovarian,2350 nM
same,GI50,SNB-75 CNS,458 nM
same,TGI,SNB-75 CNS,2090 nM
same,GI50,SR leukemia,352 nM
same,TGI,SR leukemia,9990 nM
same,GI50,RXF 393 renal,663 nM
same,TGI,RXF 393 renal,2870 nM
same,GI50,NCI-H522 lung,467 nM
same,TGI,NCI-H522 lung,4580 nM
same,GI50,786-0 renal,1620 nM
same,TGI,786-0 renal,> 25000 nM
same,GI50,HS 578T breast,766 nM
same,TGI,HS 578T breast,16000 nM
same,GI50,NCI-H226 lung,2690 nM
same,TGI,NCI-H226 lung,9780 nM
same,GI50,OVCAR-4 ovarian,3460 nM
same,TGI,OVCAR-4 ovarian,14200 nM
same,GI50,SW-620 colon,968 nM
same,TGI,SW-620 colon,> 25000 nM
same,GI50,ACHN renal,2040 nM
same,TGI,ACHN renal,7450 nM
same,GI50,SN12C renal,2430 nM
same,TGI,SN12C renal,6470 nM
same,GI50,NCI/ADR-RES ovarian,1320 nM
same,TGI,NCI/ADR-RES ovarian,24500 nM
same,GI50,KM12 colon,1140 nM
same,TGI,KM12 colon,7920 nM
same,GI50,HL-60(TB) leukemia,835 nM
same,TGI,HL-60(TB) leukemia,3640 nM
same,GI50,BT-549 breast,1360 nM
same,TGI,BT-549 breast,5950 nM
same,GI50,OVCAR-8 ovarian,2010 nM
same,TGI,OVCAR-8 ovarian,> 19600 nM
same,GI50,SK-MEL-28 melanoma,2090 nM
same,TGI,SK-MEL-28 melanoma,8690 nM
same,GI50,HCT-15 colon,688 nM
same,TGI,HCT-15 colon,> 19200 nM
same,GI50,NCI-H23 lung,2670 nM
same,TGI,NCI-H23 lung,17800 nM
same,GI50,K-562 leukemia,392 nM
same,TGI,K-562 leukemia,> 25000 nM
same,GI50,MDA-MB-231 breast,3910 nM
same,TGI,MDA-MB-231 breast,16900 nM
same,GI50,HT29 colon,783 nM
same,TGI,HT29 colon,6160 nM
same,GI50,NCI-H460 lung,1040 nM
same,TGI,NCI-H460 lung,7390 nM
same,GI50,MCF7 breast,565 nM
same,TGI,MCF7 breast,> 16200 nM
same,GI50,LOX IMVI melanoma,2410 nM
same,TGI,LOX IMVI melanoma,11200 nM
same,GI50,CAKI-1 renal,937 nM
same,TGI,CAKI-1 renal,> 23200 nM
same,GI50,HOP-62 NSCLC,1690 nM
same,TGI,HOP-62 NSCLC,> 18400 nM
same,GI50,SK-OV-3 ovarian,1220 nM
same,TGI,SK-OV-3 ovarian,> 19000 nM
same,GI50,SF-268 CNS,2640 nM
same,TGI,SF-268 CNS,> 16100 nM
same,GI50,MDA-MB-435,99.2 nM
same,TGI,MDA-MB-435,691 nM
